Experiments:
[1] = biological target: T1, Cholecystokinin receptor type A (Homo sapiens, UniProt P32238)
T1 sequence (P32238 whole entry): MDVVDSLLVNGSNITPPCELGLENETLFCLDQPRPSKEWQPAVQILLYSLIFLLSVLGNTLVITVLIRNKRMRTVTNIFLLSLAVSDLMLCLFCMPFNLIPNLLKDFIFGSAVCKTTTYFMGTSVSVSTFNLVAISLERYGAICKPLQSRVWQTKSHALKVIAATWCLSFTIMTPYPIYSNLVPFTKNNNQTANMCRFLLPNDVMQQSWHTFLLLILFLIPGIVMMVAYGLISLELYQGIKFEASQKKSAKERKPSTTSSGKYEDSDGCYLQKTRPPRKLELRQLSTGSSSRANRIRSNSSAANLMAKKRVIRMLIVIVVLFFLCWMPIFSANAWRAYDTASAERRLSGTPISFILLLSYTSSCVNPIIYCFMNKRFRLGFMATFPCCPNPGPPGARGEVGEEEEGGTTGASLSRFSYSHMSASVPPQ

[2] = biological target: T2, Muscarinic acetylcholine receptor M2 (Homo sapiens, UniProt P08172); assay type: functional, cell-based
T2 sequence (P08172 whole entry): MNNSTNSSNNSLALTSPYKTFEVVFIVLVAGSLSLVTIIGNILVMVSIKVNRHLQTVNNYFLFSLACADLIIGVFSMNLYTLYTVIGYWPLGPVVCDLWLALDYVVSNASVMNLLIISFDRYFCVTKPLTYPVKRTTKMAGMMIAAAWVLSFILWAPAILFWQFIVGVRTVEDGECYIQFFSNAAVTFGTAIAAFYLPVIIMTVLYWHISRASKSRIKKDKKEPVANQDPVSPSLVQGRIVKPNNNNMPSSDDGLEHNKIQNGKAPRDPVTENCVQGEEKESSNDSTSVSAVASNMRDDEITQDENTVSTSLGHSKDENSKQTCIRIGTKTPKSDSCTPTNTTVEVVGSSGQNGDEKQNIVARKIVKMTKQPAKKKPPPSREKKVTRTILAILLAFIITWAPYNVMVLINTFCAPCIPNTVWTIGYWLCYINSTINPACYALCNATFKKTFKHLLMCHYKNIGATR

[3] = biological target: Gamma-aminobutyric acid receptor subunit alpha-1 (Rattus norvegicus, UniProt P62813)
Chain of Gamma-aminobutyric acid receptor subunit alpha-1 (P62813 whole entry): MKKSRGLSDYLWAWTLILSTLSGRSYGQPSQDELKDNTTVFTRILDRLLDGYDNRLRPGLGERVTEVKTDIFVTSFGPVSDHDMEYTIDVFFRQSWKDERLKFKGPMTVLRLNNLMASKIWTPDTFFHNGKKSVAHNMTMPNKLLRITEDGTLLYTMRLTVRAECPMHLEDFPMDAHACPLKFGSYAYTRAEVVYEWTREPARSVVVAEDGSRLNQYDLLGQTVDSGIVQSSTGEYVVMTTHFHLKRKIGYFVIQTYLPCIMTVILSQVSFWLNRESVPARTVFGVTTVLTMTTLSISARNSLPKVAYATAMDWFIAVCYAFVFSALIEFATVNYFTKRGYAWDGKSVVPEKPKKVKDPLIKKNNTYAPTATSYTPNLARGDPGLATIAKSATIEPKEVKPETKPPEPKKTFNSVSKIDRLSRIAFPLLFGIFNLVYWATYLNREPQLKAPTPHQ

[4] = biological target: Growth hormone secretagogue receptor type 1 (Homo sapiens, UniProt Q92847)
Chain of Growth hormone secretagogue receptor type 1 (Q92847 whole entry): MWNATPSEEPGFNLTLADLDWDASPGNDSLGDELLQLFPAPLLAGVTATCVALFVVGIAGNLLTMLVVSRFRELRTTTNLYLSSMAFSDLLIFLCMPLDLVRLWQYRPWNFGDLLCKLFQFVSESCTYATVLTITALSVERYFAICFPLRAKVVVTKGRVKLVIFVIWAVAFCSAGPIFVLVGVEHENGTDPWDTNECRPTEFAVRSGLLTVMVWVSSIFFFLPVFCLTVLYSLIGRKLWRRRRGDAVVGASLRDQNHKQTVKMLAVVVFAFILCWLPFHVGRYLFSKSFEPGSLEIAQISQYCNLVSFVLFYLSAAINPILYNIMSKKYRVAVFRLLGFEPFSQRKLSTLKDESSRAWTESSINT

Histamine H1 receptor = Histamine H1 receptor (Homo sapiens, UniProt P35367)
Chain of Histamine H1 receptor (P35367 whole entry): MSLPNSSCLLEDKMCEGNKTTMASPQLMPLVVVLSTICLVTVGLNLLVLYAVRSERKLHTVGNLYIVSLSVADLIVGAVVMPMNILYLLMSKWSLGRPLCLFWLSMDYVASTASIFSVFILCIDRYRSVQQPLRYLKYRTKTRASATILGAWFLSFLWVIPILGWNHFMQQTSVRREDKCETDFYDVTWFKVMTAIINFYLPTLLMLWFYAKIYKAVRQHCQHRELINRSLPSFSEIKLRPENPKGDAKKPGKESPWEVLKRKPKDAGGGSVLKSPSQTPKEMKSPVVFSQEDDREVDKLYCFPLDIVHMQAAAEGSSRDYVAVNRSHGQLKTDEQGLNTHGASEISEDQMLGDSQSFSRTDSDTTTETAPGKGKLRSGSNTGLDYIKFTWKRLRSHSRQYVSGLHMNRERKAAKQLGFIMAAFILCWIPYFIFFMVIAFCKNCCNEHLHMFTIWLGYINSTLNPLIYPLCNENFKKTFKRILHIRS

[5] = biological target: T3, 5-hydroxytryptamine receptor 2B (Homo sapiens, UniProt P41595); assay type: functional, cell-based
T3 sequence (P41595 whole entry): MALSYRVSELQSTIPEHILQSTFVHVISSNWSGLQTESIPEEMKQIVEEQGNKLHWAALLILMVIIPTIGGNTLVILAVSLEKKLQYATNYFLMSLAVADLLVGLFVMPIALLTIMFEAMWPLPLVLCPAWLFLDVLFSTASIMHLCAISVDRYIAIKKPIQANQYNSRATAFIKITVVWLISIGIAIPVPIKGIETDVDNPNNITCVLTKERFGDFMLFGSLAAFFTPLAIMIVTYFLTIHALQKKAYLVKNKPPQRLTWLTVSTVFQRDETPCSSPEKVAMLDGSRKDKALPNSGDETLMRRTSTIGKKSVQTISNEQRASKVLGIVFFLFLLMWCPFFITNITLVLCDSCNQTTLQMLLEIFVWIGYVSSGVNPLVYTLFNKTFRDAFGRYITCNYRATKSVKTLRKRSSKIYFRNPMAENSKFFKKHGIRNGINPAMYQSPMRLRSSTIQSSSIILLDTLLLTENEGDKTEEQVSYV

[6] = biological target: T3, 5-hydroxytryptamine receptor 2B; assay type: functional, cell-based; remark: listed apart in the source
[7] = biological target: T4, Neuropeptide Y receptor type 1 (Homo sapiens, UniProt P25929)
T4 sequence (P25929 whole entry): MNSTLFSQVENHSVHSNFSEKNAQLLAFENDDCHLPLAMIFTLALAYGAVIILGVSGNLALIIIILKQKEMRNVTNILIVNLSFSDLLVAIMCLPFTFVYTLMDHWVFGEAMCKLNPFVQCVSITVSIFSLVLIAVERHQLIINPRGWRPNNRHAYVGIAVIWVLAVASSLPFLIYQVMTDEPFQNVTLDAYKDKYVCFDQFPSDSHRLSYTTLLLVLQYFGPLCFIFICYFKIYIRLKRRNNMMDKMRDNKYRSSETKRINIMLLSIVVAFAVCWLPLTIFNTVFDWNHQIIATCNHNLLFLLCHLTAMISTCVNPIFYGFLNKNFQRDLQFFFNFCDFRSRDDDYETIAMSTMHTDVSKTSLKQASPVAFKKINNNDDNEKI

[8] = biological target: Kappa-type opioid receptor (Homo sapiens, UniProt P41145)
Chain of Kappa-type opioid receptor (P41145 whole entry): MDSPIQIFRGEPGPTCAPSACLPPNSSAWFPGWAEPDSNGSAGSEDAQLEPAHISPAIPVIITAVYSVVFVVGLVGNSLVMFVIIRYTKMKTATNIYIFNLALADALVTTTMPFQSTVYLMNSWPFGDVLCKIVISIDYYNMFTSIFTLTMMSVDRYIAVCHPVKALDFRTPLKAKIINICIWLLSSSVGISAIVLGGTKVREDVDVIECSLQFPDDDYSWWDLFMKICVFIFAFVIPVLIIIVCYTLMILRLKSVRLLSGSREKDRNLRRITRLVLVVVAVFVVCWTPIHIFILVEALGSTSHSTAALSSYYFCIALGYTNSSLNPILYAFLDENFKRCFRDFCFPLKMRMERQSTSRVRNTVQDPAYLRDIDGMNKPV

Thromboxane A2 receptor = biological target: T5, Thromboxane A2 receptor (Homo sapiens, UniProt P21731)
T5 sequence (P21731 whole entry): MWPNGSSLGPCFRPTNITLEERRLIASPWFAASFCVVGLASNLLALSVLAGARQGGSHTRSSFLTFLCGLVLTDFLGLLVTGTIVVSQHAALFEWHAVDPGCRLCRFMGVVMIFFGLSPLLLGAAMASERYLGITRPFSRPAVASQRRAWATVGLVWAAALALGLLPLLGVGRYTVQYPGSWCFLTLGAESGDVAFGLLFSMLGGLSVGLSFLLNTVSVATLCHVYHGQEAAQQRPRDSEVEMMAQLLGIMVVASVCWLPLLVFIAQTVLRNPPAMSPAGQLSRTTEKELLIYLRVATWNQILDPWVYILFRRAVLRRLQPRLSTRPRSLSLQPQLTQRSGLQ

[9] = biological target: Sodium-dependent serotonin transporter (Homo sapiens, UniProt P31645)
Chain of Sodium-dependent serotonin transporter (P31645 whole entry): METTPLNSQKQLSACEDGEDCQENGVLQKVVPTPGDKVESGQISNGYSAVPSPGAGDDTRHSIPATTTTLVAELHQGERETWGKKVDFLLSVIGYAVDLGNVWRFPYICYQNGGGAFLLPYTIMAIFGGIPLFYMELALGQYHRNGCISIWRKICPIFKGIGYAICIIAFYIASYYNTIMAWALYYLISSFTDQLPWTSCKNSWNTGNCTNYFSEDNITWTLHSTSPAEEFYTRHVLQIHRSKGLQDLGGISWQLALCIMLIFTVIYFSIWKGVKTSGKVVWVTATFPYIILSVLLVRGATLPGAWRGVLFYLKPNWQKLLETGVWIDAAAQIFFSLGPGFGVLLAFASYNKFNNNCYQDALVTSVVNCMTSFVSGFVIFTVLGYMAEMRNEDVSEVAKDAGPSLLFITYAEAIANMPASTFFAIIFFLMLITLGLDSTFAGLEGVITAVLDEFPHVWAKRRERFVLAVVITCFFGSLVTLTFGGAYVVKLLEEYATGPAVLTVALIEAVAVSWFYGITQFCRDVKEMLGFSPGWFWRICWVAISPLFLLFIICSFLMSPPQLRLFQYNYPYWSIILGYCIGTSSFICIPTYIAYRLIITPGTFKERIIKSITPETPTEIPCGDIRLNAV

Endothelin-1 receptor = biological target: T6, Endothelin-1 receptor (Homo sapiens, UniProt P25101)
T6 sequence (P25101 whole entry): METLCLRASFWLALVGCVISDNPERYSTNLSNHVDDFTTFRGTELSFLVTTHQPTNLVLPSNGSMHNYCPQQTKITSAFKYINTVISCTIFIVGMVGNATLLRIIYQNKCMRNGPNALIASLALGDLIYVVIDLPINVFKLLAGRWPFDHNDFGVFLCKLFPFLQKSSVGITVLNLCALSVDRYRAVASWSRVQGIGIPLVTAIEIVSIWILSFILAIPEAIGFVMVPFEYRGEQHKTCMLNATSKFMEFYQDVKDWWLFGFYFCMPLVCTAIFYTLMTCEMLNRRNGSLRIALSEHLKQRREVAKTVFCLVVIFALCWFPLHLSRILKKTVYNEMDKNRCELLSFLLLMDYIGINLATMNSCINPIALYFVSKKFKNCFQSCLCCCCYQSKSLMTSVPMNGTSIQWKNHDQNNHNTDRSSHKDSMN
Further: assay procedure not described here.

Compound | AC50 [1] [µM] | AC50 [2] [µM] | AC50 [3] [µM] | AC50 [4] [µM] | AC50 (Histamine H1 receptor) [µM] | AC50 [5] [µM] | AC50 [6] [µM] | AC50 [7] [µM] | AC50 [8] [µM] | AC50 (Thromboxane A2 receptor) [µM] | AC50 [9] [µM] | AC50 (Endothelin-1 receptor) [µM]
CC(=O)OCC(=O)[C@@]1(O)CC[C@H]2[C@@H]3CCC4=CC(=O)CC[C@]4(C)C3=CC[C@@]21C [ANECORTAVE ACETATE] | > 10 | > 10 | > 10 | > 10 | > 10 | > 10 | > 10 | > 10 | > 10 | > 10 | > 10 | –
NS(=O)(=O)c1cc2c(cc1C(F)(F)F)NC(Cc1ccccc1)NS2(=O)=O (stereo not given) [BENDROFLUMETHIAZIDE] | > 10 | > 10 | > 10 | > 10 | > 10 | > 10 | > 10 | > 10 | > 10 | > 10 | > 30 | –
C[C@@H]1C[C@H]2[C@@H]3C[C@H](F)C4=CC(=O)C=C[C@]4(C)[C@@]3(F)[C@@H](O)C[C@]2(C)[C@H]1C(=O)CO [DIFLUCORTOLONE] | – | – | – | – | > 30 | > 30 | 18 | – | – | – | > 30 | –
COC(=O)N[C@@H](C)CNc1nccc(-c2cn(C(C)C)nc2-c2cc(Cl)cc(NS(C)(=O)=O)c2F)n1 [ENCORAFENIB] | > 30 | > 30 | > 30 | > 30 | > 30 | > 30 | 28 | > 30 | 13.7 | > 30 | > 30 | –
Clc1ccc2c(c1)C(c1ccccc1)=NCc1nncn1-2 [ESTAZOLAM] | > 30 | > 10 | > 10 | > 30 | > 10 | > 10 | > 10 | > 30 | 20.1 | > 30 | > 30 | –
Clc1ccc(C(Cn2ccnc2)OCc2ccc(Sc3ccccc3)cc2)c(Cl)c1 (stereo not given) [FENTICONAZOLE] | > 30 | > 30 | – | > 30 | > 30 | > 30 | > 30 | 30 | 2.5 | > 30 | – | > 30
Nc1nc(F)nc2c1ncn2[C@@H]1O[C@H](COP(=O)(O)O)[C@@H](O)[C@@H]1O [FLUDARABINE PHOSPHATE] | > 30 | > 30 | > 30 | > 30 | > 30 | > 30 | > 30 | > 30 | > 30 | > 30 | > 30 | –
CC1(C)C(/C=C/C=C/C=C/C=C2\N(CCCCS(=O)(=O)O)c3ccc4ccccc4c3C2(C)C)=[N+](CCCCS(=O)(=O)[O-])c2ccc3ccccc3c21 [INDOCYANINE GREEN ACID FORM] | 19 | – | – | 14 | 8.3 | – | – | > 30 | 13 | – | – | > 30
CC#CCn1c(N2CCC[C@@H](N)C2)nc2c1c(=O)n(Cc1nc(C)c3ccccc3n1)c(=O)n2C [LINAGLIPTIN] | > 30 | – | > 10 | 5.2 | > 10 | > 10 | > 10 | > 30 | > 10 | > 30 | > 30 | –
CC(=O)Nc1c(I)c(C(=O)N[C@H]2C(O)O[C@H](CO)[C@@H](O)[C@@H]2O)c(I)c(N(C)C(C)=O)c1I (stereo not given in full) [METRIZAMIDE] | > 10 | > 10 | > 30 | > 10 | > 10 | > 10 | > 10 | > 10 | > 10 | > 10 | > 10 | –
CC(=O)O[C@H]1C[C@@H]2CC[C@@H]3[C@H](CC[C@@]4(C)[C@H]3C[C@H]([N+]3(C)CCCCC3)[C@@H]4OC(C)=O)[C@@]2(C)C[C@@H]1[N+]1(C)CCCCC1 [PANCURONIUM] | > 10 | > 10 | > 10 | > 10 | > 10 | > 10 | > 10 | > 10 | > 10 | > 10 | > 10 | –
CC1(C)C(C=C(Cl)Cl)C1C(=O)OCc1cccc(Oc2ccccc2)c1 (stereo not given) [PERMETHRIN] | > 10 | > 10 | > 10 | > 10 | > 10 | > 10 | > 10 | > 10 | > 10 | > 10 | > 10 | –
NC(=O)CCC/N=C(\c1ccc(Cl)cc1)c1cc(F)ccc1O [PROGABIDE] | > 10 | > 10 | > 10 | > 10 | > 10 | > 10 | > 10 | > 10 | > 10 | > 10 | > 10 | –
CN1c2ccccc2C(NCCCCCCC(=O)O)c2ccc(Cl)cc2S1(=O)=O (stereo not given) [TIANEPTINE] | > 30 | > 30 | > 30 | > 30 | > 30 | > 30 | > 30 | > 30 | > 30 | > 30 | – | > 30
COc1cc2nccc(Oc3ccc(NC(=O)Nc4cc(C)on4)c(Cl)c3)c2cc1OC [TIVOZANIB] | – | > 30 | – | – | > 30 | – | – | – | – | > 3 | – | –
COc1cc2c(Nc3ccc(Br)cc3F)ncnc2cc1OCC1CCN(C)CC1 [VANDETANIB] | > 10 | 21 | > 30 | 26 | – | > 30 | 14 | > 30 | > 30 | – | 3.4 | > 30
C=CC(N)CCC(=O)O (stereo not given) [VIGABATRIN] | > 10 | > 10 | > 10 | > 10 | > 10 | > 10 | > 10 | > 10 | > 10 | > 10 | 12.2 | –
N#C[C@@H]1CCCN1C(=O)CNC12CC3CC(CC(O)(C3)C1)C2 [VILDAGLIPTIN] | > 30 | > 30 | > 30 | > 30 | > 30 | > 30 | > 30 | > 30 | > 30 | > 30 | > 30 | –

Reference: ChEMBL document CHEMBL5291721, “A preclinical secondary pharmacology resource illuminates target-adverse drug reaction associations of marketed drugs” (Nat Commun, 2023)
